Measured values from paper PMC10779102, “Structural Studies of Klebsiella pneumoniae Fosfomycin-Resistance Protein and Its Application for the Development of an Optical Biosensor for Fosfomycin Determination” (International Journal of Molecular Sciences, 2023).

Experiments:
FosAPA = biological target: T1, FosAPA (Pseudomonas aeruginosa, UniProt Q9I4K6); test: DTNB ([…] nm) assay of GSH conjugation, time course; format: biochemical; settings: 10 mM Fos, 15 mM GSH, 0.1 M sodium phosphate pH 8, 100 mM KCl, 0.05 mM MnCl2, 25 °C
T1 construct: gene fosA
T1 sequence (Q9I4K6 whole entry): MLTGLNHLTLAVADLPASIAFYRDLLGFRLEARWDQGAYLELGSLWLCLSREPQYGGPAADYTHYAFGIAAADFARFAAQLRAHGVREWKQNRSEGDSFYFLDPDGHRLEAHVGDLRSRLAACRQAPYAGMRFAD

FosAKP = biological target: T2, FosAKP (Klebsiella pneumoniae, UniProt A0A086IRG1); test: DTNB ([…] nm) activity assay; crystal structure of complex ([…] Å); format: biochemical; settings: read-out: % inhibition at 5 mM
T2 construct: gene fosA
T2 sequence (A0A086IRG1 entry or part of it): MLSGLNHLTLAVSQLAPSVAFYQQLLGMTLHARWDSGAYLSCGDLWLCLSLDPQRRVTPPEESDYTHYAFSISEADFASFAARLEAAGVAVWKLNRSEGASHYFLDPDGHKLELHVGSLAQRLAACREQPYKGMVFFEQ

[1] = system: C[C@@H]1O[C@@H]1P(=O)(O)O; test: purified protein; format: biochemical, Klebsiella pneumoniae; settings: free enzyme, 15 mM GSH, 0.1 M sodium phosphate pH 8, 100 mM KCl, 0.05 mM MnCl2, 25 °C, also bound in active site of crystal structure

Question: `C[C@@H]1O[C@@H]1P(=O)(O)O` [Fosfomycin, (1R,2S)-epoxypropylphosphonic acid] was tested. Which “DTNB (412 nm) assay of GSH conjugation, time course” value (FosAPA) did it give?
Answer: time course of Fos conjugation with GSH, catalyzed by FosAPA and FosAKP

Question: With `O=C(O)C(O)C(O)C(=O)O` (stereo not drawn) [Tar] as the compound, how does the inhibition at 5000 µM (FosAKP) read?
Answer: 20.7%

Question: FosAKP (Klebsiella pneumoniae) was tested. Which Km [1] did it give?
Answer: 2200 ± 300 µM
